Assay results published in patent publication US20230174581A1, “PROCESSES AND AGENTS FOR GLAUCOMA” (AUFBAU MEDICAL INNOVATIONS LIMITED, priority 2020, published 2023).
pEC50: −log10 of the molar value. Counter-ions that a name gives are not always drawn. Where a SMILES comes first, the peptide text is derived from it. Bridges are numbered along the chain shown (N, C = ends). [ ]: non-standard residue; d: D form. The star is where a group is joined. Octanoyl(6-Me) = CCC(C)CCCCC(=O)*; Dab = NCC[CH](N)C(=O)O

Legend:
[1] = Relative IOP versus placebo in bovine vitreous humor (BVH) glaucoma model, microfluidic chip device
Procedure: Bovine vitreous after homogenization was used to model human disease because it mimicked elevated IOP in humans.
A solution of the agent compound was prepared by weighing out the compound in a microcentrifuge tube and dissolving the solid material in lx PBS buffer at pH 7.2. For a compound that was less soluble in water, a stock solution was prepared in ethanol or DMSO, and then diluted ten-fold to achieve the final concentration with a 10% ethanol or DMSO vehicle. Heat (37° C.) and vortex mixing were applied to the solution of the compound to facilitate dissolution.
To determine the effect of the compound on intraocular pressure (IOP), the compound was tested in bovine vitreous humor (BVH) glaucoma model in the microfluidic chip device.
A solution of 25% homogenized bovine vitreous humor (BVH) was prepared by diluting 100% homogenized BVH with PBS buffer. 50 uL BVH was aliquoted into 0.5 mL PCR tubes. 50 uL of the solution of the compound was added to the BVH, bringing the BVH total concentration to 12.5%. The sample was briefly vortexed and then incubated at 37° C. overnight. For a control experiment, 50 uL of either PBS buffer or PBS with 10% ethanol or DMSO were prepared and incubated with 25% BVH in the same conditions.
The test BVH solution was introduced into the reservoir of the device. A fluidic probe was attached to the inlet of the microfluidic chip and a flow rate of 2ul/min was established with PBS as the source fluid. Once fluid began exiting from the outlet of the chip and a steady flow of 2 ul/min was achieved, the flow rate and the pressure change within the microfluidic chip were recorded. Baseline flow rate and pressure readings were recorded for 5 minutes, after which 7 ul of the test BVH solution was injected into the chip through a sample injector. Recording of the flow rate and pressure change was continued for 50 additional minutes after the sample injection. Recording was stopped after 55 minutes. The relative change in chip pressure for the entire course of the experiment was plotted on a graph.

[2] = Dose-response of IOP reduction in bovine vitreous humor (BVH) glaucoma model, microfluidic chip device; conditions: 12.5% BVH, incubated at 37° C. for 1 hour; 7 ul injected; read-out: EC50 for treatment of glaucoma in a bovine vitreous model (IOP reduction)
Procedure: Bovine vitreous after homogenization was used to model human disease because it mimicked elevated IOP in humans. […] Once it was added to BVH, the final water concentration was 0.5%. […] Once added to BVH, the final DMSO concentration was 0.5%. […] The pellet was resuspended with PBS and concentrated by 2.5X fold. For treatment of BVH with compound, 25 ul of enriched BVH was added to 25 ul of Compound and incubated for 1 hour in a thermocycler at 37° C., then 5 ul of 5 mM CFSE was added, and the sample incubated in a thermocycler at 37° C. for 30 minutes. EC50 was estimated by plotting the logarithmic functions of the micromolar concentration of the drug in the x axis against the percent of maximal response in the y axis. The maximal response was taken as the value of the response for the highest drug concentration. The response was calculated by taking the absolute difference between the control and test value for each concentration. The compound colistin sulfate was tested in bovine vitreous humor (BVH) glaucoma model in a microfluidic chip device. A solution of 25% homogenized BVH in PBS buffer was prepared and diluted with an equal amount of a solution of the compound, so that the total BVH concentration was 12.5%. The sample was vortexed and incubated at 37° C. for 1 hour. […] The test compound-BVH solution was introduced into the reservoir of the microfluidic chip device and flow rate and pressure change were recorded. Various concentrations of the compound were tested for effects on the treatment of bovine vitreous humor. 7 ul of each test solution was injected into the microfluidic chip through a sample injector. Recording of the flow rate and pressure change was continued for 50 additional minutes after the sample injection. The relative change in chip pressure for the entire course of the experiment was obtained. […] The EC50 value was taken as the point on the x-axis at which the logarithmic function of the micromolar concentration of the compound produced half-maximal response. The logarithmic function of the micromolar concentration of the drug was plotted on the x axis against the percent of maximal response on the y axis. Maximal response was obtained by taking the value of the response for the highest drug concentration. The response was calculated by taking the absolute difference between the control and test value for each concentration.

[3] = Relative IOP in microfluidic device, human glaucoma model (POAG aqueous humor); conditions: pre-incubated at 37° C. for 24 hours, placebo buffered saline
Procedure: The agent was tested by controlling flow and measuring relative IOP using in a device of this invention. The agent was compared against placebo (buffered saline) by preparing each in aqueous humor from a patient with primary open angle glaucoma and pre-incubating at 37° C. for 24 hours. The timepoint of injection into the device is denoted by an arrow and the letter “a.” Referring to FIG. 25, the IOP for placebo (dashed line) increased greatly after injection of the placebo sample. The IOP rose to a maximum pressure of about 40 mm Hg. To the contrary, the IOP after injection of the agent colistin sulfate in human aqueous humor (solid line) was markedly lower than for placebo, up to about 40% lower, and the difference was sustained.
Example 1. Isolation of extracellular matrix bodies in a microfluidic device. […] The microfluidic channel flow rate was held constant at […] per minute, and the baseline system pressure was measured using an external pressure sensor. The human aqueous humor sample was injected at timepoint denoted by an arrow and the letter “a.” The pressure steadily rises to a maximum of about 41 mm Hg at 27 minutes. […] The protein content in the aqueous humor was labeled with a fluorescent marker, carboxyfluorescein succinimidyl ester (CFSE, marked with black arrows in FIG. 2). The circles are pillars in the restriction channel.
Example 2. […]

[4] = pre-incubated at 37° C. for 24 hours, placebo buffered saline, concentration not given

| Compound | IOP after injection of agent, lower than for placebo [1, 4] | pEC50 [2] | also measured |
| --- | --- | --- | --- |
| CC(C)(C)C(=O)OCOP(=O)(COCCn1cnc2c(N)ncnc21)OCOC(=O)C(C)(C)C [adefovir dipivoxil] | up to 73% | – | – |
| Nc1ncnc2c1ncn2CCOCP(=O)(O)O [adefovir, ((2-(6-amino-9H-purin-9-yl)ethoxy)methyl)phosphonic acid] | – | 6.77 | – |
| CC(C)(C)NC(=O)N[C@H](C(=O)N1C[C@H]2[C@@H]([C@H]1C(=O)NC(CC1CCC1)C(=O)C(N)=O)C2(C)C)C(C)(C)C (some centres unmarked) [boceprevir] | up to 67% | 4.95 | – |
| CCCCCCCCCCCCCCCC[n+]1ccccc1 [cetylpyridinium chloride, 1-hexadecylpyridin-1-ium] | – | – | IOP after injection of agent, lower than for placebo ([1]; 37° C. 24 hours, cetylpyridinium chloride 43 mg/ml): ≤ 100% |
| CC[C@@H](C(N)=O)N1CCCC1=O [levetiracetam] | up to 62% | 6.67 | – |
| NC[C@@H]1OC(O[C@H]2[C@@H](O)[C@H](O[C@@H]3[C@@H](O)[C@H](N)C[C@H](N)[C@H]3OC3O[C@H](CN)[C@@H](O)[C@H](O)[C@H]3N)O[C@@H]2CO)[C@H](N)[C@@H](O)[C@@H]1O (some centres unmarked) [neomycin] | – | – | IOP after injection of agent, lower than for placebo ([1]; 37° C. 24 hours, neomycin sulfate 35 mg/ml): 72% |
| COC(=O)N[C@H](C(=O)N1CCC[C@H]1C(=O)Nc1ccc([C@@H]2CC[C@@H](c3ccc(NC(=O)[C@@H]4CCCN4C(=O)[C@@H](NC(=O)OC)C(C)C)cc3)N2c2ccc(C(C)(C)C)cc2)cc1)C(C)C [ombitasvir] | – | – | IOP after injection of compound compared with placebo ([1]; 37° C. 24 hours, concentration not given): significantly higher than for placebo |
| CCC(C)CCCCC(=O)NC(CCN)C(=O)NC(C(=O)NC(CCN)C(=O)NC1CCNC(=O)C(C(C)O)NC(=O)C(CCN)NC(=O)C(CCN)NC(=O)C(CC(C)C)NC(=O)C(Cc2ccccc2)NC(=O)C(CCN)NC1=O)C(C)O (centres unmarked) [polymyxin B sulfate] ({Octanoyl(6-Me)}-[Dab]T[Dab][Dab][Dab]FL[Dab][Dab]T; lactam 4-C; configuration not given here) | – | 8.37 | IOP after injection of agent, lower than for placebo ([1]; 37° C. 24 hours, Polymyxin B sulfate 10 mg/ml): 78% |
| CC(C)N(CCNC(=O)CN1CCCC1=O)C(C)C [pramiracetam, N-[2-[di(propan-2-yl)amino]ethyl]-2-(2-oxopyrrolidin-1-yl)acetamide] | up to 44% | – | – |
| CCCCCCCCCCCCOS(=O)(=O)[O-].[Na+] [sodium dodecyl sulfate] | – | – | IOP after injection of compound compared with placebo ([1]; 37° C. 24 hours, sodium dodecyl sulfate 24 mg/ml): significantly higher than for placebo |
| CN(C)CCCN1c2ccccc2Sc2ccc(C(F)(F)F)cc21 [triflupromazine] | up to 40% | – | – |
| H-TPPT-NH2 [rapastinel TFA] | up to 82% | 7.74 | – |
| colistin sulfate | up to 97% | 9.44 | IOP after injection of agent, lower than for placebo [3]: up to 40% |
| heparin sodium | – | – | IOP after injection of agent, lower than for placebo ([1]; 37° C. 24 hours, heparin sodium 10 mg/ml): 32% |
